Measured values: ChEMBL document CHEMBL1909046, “DrugMatrix in vitro pharmacology data”

Legend:
[1] = DRUGMATRIX: GABAA, Muscimol, Central radioligand binding (ligand: [3H] Muscimol); assay type: cell membranes, Rattus norvegicus, Wistar, Brain, Membrane; conditions: Not Active = under 50% inhibition at 10 µM
[2] = DRUGMATRIX: Glutamate, NMDA, Phencyclidine radioligand binding (ligand: [3H] TCP); assay type: cell membranes, Rattus norvegicus, Wistar, Cerebral cortex, Membrane; conditions: Not Active = under 50% inhibition at 10 µM
[3] = DRUGMATRIX: Leukotriene, BLT (LTB4) radioligand binding (ligand: [3H]LTB4); assay type: cell membranes, Membrane; conditions: u-937; Not Active = under 50% inhibition at 10 µM
Melanocortin receptor 3 = Melanocortin receptor 3 (Homo sapiens, UniProt P41968); assay type: cell membranes, Membrane; conditions: hek293; further: in other assays of this panel Not Active means under 50% inhibition at 10 µM
Chain of Melanocortin receptor 3 (P41968 whole entry): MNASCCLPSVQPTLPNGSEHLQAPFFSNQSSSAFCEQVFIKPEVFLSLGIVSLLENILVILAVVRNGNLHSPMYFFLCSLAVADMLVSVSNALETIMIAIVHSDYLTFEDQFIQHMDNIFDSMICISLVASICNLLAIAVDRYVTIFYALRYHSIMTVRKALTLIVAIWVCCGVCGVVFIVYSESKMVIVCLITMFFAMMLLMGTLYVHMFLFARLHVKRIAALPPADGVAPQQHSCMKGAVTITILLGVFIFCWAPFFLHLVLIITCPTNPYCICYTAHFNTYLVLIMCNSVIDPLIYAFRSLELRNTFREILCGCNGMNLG

[4] = target: Delta-type opioid receptor (Homo sapiens, UniProt P41143); assay type: cell membranes, HEK293, Membrane; conditions: hek293; further: in other assays of this panel Not Active means under 50% inhibition at 10 µM
Chain of Delta-type opioid receptor (P41143 whole entry): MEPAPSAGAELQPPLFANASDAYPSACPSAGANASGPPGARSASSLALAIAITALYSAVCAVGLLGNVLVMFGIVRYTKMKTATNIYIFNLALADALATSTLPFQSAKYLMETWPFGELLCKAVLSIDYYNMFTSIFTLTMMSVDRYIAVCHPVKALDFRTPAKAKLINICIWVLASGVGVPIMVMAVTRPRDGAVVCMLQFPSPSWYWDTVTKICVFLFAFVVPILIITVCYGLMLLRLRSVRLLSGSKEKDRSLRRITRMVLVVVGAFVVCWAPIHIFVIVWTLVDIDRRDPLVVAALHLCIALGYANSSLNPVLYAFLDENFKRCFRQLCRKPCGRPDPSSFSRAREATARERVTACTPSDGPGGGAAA

[5] = DRUGMATRIX: Phosphodiesterase PDE4 enzyme inhibition (substrate: [3H]cAMP + cAMP); conditions: u-937; Not Active = under 50% inhibition at 10 µM
[6] = target: T1, Angiotensin-converting enzyme (Oryctolagus cuniculus, UniProt P12822); assay type: tissue-based, Lung;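 further: enzymatic inhibition of angiotensin-converting enzyme measured with FAPGG as the substrate; in other assays of this panel Not Active means under 50% inhibition at 10 µM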
T1 sequence (P12822 whole entry): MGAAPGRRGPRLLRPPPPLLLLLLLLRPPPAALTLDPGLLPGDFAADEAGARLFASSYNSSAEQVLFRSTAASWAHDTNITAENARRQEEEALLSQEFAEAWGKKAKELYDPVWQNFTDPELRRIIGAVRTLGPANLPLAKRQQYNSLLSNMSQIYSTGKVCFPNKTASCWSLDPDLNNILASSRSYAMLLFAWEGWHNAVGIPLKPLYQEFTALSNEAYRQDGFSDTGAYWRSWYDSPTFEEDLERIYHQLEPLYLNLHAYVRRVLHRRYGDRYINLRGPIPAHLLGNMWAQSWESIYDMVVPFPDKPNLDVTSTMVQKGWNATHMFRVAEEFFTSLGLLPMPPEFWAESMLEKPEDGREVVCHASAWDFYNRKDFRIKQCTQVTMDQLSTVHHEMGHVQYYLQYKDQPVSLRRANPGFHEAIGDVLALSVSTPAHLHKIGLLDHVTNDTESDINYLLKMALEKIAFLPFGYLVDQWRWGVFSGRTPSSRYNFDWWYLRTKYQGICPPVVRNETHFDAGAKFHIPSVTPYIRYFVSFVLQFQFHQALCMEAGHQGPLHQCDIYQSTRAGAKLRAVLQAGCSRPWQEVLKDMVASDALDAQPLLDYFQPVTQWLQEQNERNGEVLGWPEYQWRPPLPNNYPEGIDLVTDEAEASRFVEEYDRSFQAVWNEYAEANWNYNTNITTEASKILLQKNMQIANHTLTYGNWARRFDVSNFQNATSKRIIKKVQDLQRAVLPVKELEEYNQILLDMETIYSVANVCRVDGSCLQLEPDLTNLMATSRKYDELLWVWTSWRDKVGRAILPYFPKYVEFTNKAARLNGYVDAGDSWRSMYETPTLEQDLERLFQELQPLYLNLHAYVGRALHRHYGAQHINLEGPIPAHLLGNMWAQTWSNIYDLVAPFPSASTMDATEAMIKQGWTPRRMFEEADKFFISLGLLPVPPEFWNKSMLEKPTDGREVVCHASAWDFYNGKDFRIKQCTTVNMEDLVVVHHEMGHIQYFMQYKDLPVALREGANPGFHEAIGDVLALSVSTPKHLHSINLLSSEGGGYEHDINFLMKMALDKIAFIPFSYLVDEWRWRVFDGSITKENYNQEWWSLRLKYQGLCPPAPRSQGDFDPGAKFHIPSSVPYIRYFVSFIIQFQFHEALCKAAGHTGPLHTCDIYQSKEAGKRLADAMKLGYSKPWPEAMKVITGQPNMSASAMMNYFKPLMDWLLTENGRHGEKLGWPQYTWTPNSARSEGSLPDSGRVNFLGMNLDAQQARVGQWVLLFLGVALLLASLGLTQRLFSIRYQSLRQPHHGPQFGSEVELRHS

Adenosine receptor A2a = Adenosine receptor A2a (Homo sapiens, UniProt P29274); test: DRUGMATRIX: Adenosine A2A radioligand binding (ligand: […]); assay type: cell membranes, HEK293, Membrane; conditions: Not Active = under 50% inhibition at 10 µM
Chain of Adenosine receptor A2a (P29274 whole entry): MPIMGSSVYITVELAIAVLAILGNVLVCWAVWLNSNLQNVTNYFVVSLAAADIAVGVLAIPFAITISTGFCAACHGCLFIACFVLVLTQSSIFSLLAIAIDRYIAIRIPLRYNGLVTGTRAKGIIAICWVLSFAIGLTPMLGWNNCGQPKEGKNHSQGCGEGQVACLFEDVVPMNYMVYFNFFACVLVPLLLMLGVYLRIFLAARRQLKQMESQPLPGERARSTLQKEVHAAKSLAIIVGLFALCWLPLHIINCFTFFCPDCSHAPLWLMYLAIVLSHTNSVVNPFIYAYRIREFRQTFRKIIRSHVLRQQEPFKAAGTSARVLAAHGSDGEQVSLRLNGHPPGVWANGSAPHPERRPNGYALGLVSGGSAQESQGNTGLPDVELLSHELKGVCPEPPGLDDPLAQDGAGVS

Compound	IC50 [1]	Ki [1]	IC50 [2]	Ki [2]	IC50 [3]	Ki [3]	IC50 (Melanocortin receptor 3)	IC50 [4]	IC50 [5]	Ki [5]	IC50 [6]	IC50 (Adenosine receptor A2a; hek293)	IC50 (Adenosine receptor A2a; read-out: IC50) [nM]	Ki (Adenosine receptor A2a; read-out: Ki) [nM]
C[C@]12CC[C@@H]3c4ccc(O)cc4CC[C@H]3[C@@H]1CC[C@@H]2O [ESTRADIOL]	Not Active	Not Active	Not Active	Not Active	Not Active	Not Active	Not Active	Not Active	Not Active	Not Active	Not Active	Not Active	–	–
C#C[C@]1(OC(C)=O)CC[C@H]2[C@@H]3CCC4=CC(=O)CC[C@@H]4[C@H]3CC[C@@]21C [NORETHINDRONE ACETATE]	Not Active	Not Active	Not Active	Not Active	Not Active	Not Active	Not Active	Not Active	Not Active	Not Active	Not Active	Not Active	–	–
N=C(Nc1ccccc1)Nc1ccccc1	Not Active	Not Active	Not Active	Not Active	Not Active	Not Active	Not Active	Not Active	Not Active	Not Active	Not Active	Not Active	–	–
ClC(Cl)Cl [CHLOROFORM]	Not Active	Not Active	Not Active	Not Active	Not Active	Not Active	Not Active	Not Active	Not Active	Not Active	Not Active	Not Active	–	–
N=C(N)NC(=O)c1nc(Cl)c(N)nc1N [AMILORIDE]	Not Active	Not Active	Not Active	Not Active	Not Active	Not Active	Not Active	Not Active	Not Active	Not Active	Not Active	Not Active	–	–
CCN1CC(CCN2CCOCC2)C(c2ccccc2)(c2ccccc2)C1=O (stereo unspecified) [DOXAPRAM]	Not Active	Not Active	Not Active	Not Active	Not Active	Not Active	Not Active	Not Active	Not Active	Not Active	Not Active	Not Active	–	–
Cc1ccc(S(=O)(=O)NC(=O)NN2CC3CCCC3C2)cc1 (stereo unspecified) [GLICLAZIDE]	Not Active	Not Active	Not Active	Not Active	Not Active	Not Active	Not Active	Not Active	Not Active	Not Active	Not Active	Not Active	–	–
COc1cccc2c1C(=O)c1c(O)c3c(c(O)c1C2=O)C[C@@](O)(C(=O)CO)C[C@@H]3O[C@H]1C[C@H](N)[C@H](O)[C@H](C)O1 [DOXORUBICIN]	Not Active	Not Active	Not Active	Not Active	Not Active	Not Active	Not Active	Not Active	Not Active	Not Active	Not Active	Not Active	–	–
Cn1c(=O)c2c(ncn2CC2OCCO2)n(C)c1=O [DOXOFYLLINE]	Not Active	Not Active	Not Active	Not Active	Not Active	Not Active	Not Active	Not Active	Not Active	Not Active	Not Active	Not Active	–	–
Cc1cc2cc3c(C)cc(=O)oc3c(C)c2o1 [TRIOXSALEN]	Not Active	Not Active	Not Active	Not Active	Not Active	Not Active	Not Active	Not Active	Not Active	Not Active	Not Active	–	1310	737
